How the values were obtained:
Type in all cases: binding
[1] = biological target: T1, AT cpn-β (thermosome cpn-β) (Acidianus tengchongensis, UniProt Q877H2); experiment: heating […] min then native PAGE of oligomer dissociation; conditions: ADP in place of ATP; pH 7.5, MgCl2
T1 sequence (Q877H2 1-553): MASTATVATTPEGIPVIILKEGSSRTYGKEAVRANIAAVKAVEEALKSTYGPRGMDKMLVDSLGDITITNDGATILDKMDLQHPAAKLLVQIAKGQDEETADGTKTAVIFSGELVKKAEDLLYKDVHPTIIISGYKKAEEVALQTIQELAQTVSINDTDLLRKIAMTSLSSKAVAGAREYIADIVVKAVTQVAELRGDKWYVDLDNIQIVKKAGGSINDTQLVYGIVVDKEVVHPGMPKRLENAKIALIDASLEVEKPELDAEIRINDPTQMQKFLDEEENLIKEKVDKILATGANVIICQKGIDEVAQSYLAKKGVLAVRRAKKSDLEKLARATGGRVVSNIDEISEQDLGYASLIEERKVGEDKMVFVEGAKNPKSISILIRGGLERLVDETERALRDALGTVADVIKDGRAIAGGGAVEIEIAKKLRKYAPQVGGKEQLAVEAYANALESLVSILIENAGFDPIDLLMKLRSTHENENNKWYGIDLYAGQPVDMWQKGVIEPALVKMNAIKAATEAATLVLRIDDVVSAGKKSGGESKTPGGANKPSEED

[2] = biological target: T2, AT cpn-α (thermosome cpn-α) (Acidianus tengchongensis, UniProt Q877H0); experiment: as above; conditions: ADP in place of ATP; pH 7.5, MgCl2
T2 sequence (Q877H0 1-563): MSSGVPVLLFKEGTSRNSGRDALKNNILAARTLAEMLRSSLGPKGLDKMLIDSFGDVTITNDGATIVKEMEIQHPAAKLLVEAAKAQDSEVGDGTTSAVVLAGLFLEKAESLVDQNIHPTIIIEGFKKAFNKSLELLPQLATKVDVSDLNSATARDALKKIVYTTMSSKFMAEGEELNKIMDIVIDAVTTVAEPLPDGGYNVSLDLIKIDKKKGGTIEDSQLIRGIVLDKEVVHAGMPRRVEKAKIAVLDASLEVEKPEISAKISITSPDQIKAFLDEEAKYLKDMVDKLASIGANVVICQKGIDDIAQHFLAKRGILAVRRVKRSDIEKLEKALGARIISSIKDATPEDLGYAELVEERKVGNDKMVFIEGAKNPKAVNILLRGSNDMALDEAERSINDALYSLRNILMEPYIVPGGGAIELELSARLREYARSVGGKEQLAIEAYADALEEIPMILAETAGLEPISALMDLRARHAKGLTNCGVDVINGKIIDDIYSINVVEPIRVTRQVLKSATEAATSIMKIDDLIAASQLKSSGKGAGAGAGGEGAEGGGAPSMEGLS

[3] = biological target: T2, AT cpn-α (thermosome cpn-α); experiment: nucleotide-induced oligomer assembly by native PAGE; conditions: 2 mM nucleotide, 20 mM MgCl2, pH 7.5, 37 °C, 8 h
[4] = biological target: T1, AT cpn-β (thermosome cpn-β); experiment: as above; conditions: 2 mM nucleotide, 20 mM MgCl2, pH 7.5, 37 °C, 8 h
[5] = biological target: T1, AT cpn-β (thermosome cpn-β); experiment: cryo-EM reconstruction with MDFF model; conditions: pH 7.5, 12 mM Mg, 50 mM KCl; 6.2/5.0 Å resolution

| Structure (SMILES) | Td [1] | Td [2] | nucleotide-induced oligomer assembly by native PAGE [3] | nucleotide-induced oligomer assembly by native PAGE [4] | cryo-EM reconstruction with MDFF model [5] |
| --- | --- | --- | --- | --- | --- |
| Nc1ncnc2c1ncn2[C@@H]1O[C@H](COP(=O)(O)OP(=O)(O)O)[C@@H](O)[C@H]1O [ADP] | ADP binding also increased the thermal stability of cpn-α and cpn-β | ADP binding also increased the thermal stability of cpn-α and cpn-β | – | – | – |
| Nc1ncnc2c1ncn2[C@@H]1O[C@H](COP(=O)(O)OP(=O)(O)NP(=O)(O)O)[C@@H](O)[C@H]1O [AMP-PNP] | – | – | all nucleotides could efficiently induce the assembly of thermosomes for both cpn-α | all nucleotides could efficiently induce the assembly of thermosomes for both cpn-α | – |
| Nc1ncnc2c1ncn2[C@@H]1O[C@H](COP(=O)(O)OP(=O)(O)OP(=O)(O)O)[C@@H](O)[C@H]1O [ATP] | – | – | – | – | cryoEM reconstructions of cpn-β in the apo or ATP-binding state |
| Nc1nc2c(ncn2[C@@H]2O[C@H](COP(=O)(O)OP(=O)(O)OP(=O)(O)O)[C@@H](O)[C@H]2O)c(=O)[nH]1 [GTP] | – | – | even GTP could induce the assembly of thermosomes | even GTP could induce the assembly of thermosomes | – |

— PMC3740188 (Protein & cell, 2013)
